In patent publication US20260033761A1, “CHARACTERISATION OF NEUROLOGICAL DYSFUNCTION” (Hoffmann-La Roche Inc., priority 2022, published 2026):
Entries after “also recorded” stand apart in the source; their conditions may differ. Like-named read-outs stand apart in the source and are kept apart here.

Columns and labels:
[1] = biological target: T1, GABA-A α5 receptors (Rattus norvegicus, UniProt P18508+P19969); conditions: Wistar rats prenatally exposed to valproic acid; cited from earlier work
T1 construct: host or cells: Wistar rats in vivo (valproic acid model)
T1 sequence (P19969 32-464 limits assumed): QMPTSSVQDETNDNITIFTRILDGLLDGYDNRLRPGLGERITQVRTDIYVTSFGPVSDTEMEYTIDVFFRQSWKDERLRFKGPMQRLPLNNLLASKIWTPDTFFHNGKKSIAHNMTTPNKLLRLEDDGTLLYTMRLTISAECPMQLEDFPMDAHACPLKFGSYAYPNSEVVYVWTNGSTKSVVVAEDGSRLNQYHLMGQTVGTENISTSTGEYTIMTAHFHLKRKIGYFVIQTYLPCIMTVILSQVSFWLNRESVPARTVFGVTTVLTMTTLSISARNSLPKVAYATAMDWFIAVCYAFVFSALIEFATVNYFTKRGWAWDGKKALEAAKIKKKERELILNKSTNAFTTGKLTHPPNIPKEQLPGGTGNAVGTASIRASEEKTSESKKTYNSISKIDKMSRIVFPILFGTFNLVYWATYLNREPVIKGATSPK
T1 sequence (P63079 26-473 partner): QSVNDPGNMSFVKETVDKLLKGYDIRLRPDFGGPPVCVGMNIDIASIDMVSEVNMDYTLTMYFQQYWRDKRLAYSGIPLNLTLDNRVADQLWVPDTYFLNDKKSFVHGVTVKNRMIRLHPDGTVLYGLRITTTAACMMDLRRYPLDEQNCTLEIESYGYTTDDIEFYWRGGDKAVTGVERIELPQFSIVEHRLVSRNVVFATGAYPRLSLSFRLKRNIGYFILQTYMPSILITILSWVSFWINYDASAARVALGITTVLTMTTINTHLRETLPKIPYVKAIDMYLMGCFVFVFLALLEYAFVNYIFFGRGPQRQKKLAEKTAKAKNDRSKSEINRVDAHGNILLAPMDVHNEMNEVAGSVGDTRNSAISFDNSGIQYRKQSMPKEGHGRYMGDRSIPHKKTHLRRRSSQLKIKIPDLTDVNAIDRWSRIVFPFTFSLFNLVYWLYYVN
T1 sequence (P18508 39-466): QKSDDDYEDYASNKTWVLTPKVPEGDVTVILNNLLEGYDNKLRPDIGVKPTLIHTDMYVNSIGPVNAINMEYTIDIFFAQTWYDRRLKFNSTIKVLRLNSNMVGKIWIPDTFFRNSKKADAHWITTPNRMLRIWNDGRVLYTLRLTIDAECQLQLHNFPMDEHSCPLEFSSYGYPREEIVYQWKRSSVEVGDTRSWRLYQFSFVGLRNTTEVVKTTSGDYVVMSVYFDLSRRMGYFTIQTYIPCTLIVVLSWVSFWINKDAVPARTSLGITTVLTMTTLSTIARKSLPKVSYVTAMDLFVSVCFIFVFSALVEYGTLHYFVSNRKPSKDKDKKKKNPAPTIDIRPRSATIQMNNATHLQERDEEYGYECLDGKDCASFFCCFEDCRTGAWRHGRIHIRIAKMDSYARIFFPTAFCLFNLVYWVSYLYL

[2] = test system: GABA-A receptors; conditions: Visser et al., 2003; cited from earlier work
[3] = biological target: T2, GABA-A α5 (Homo sapiens, UniProt P18507+P31644); experiment: Resting state EEG, Phase 1 SAD/MAD study BP40091 (alogabat vs placebo); type: in vivo, human (adult healthy volunteers); design: endogenous in cells; host or cells: brain of adult healthy volunteers, in vivo (resting-state EEG)
T2 sequence (P31644 32-462): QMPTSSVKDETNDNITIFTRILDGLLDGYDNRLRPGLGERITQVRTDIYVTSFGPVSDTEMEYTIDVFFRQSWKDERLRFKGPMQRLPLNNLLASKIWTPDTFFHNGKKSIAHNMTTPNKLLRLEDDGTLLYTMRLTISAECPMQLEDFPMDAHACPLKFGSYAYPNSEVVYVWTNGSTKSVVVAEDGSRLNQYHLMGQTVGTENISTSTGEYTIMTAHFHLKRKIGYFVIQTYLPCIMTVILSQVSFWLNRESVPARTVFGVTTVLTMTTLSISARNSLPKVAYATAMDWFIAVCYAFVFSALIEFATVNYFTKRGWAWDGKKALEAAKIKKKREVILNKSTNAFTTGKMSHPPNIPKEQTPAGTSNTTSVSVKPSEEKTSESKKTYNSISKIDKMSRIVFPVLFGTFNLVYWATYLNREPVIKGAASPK
T2 sequence (P28472 26-473 partner): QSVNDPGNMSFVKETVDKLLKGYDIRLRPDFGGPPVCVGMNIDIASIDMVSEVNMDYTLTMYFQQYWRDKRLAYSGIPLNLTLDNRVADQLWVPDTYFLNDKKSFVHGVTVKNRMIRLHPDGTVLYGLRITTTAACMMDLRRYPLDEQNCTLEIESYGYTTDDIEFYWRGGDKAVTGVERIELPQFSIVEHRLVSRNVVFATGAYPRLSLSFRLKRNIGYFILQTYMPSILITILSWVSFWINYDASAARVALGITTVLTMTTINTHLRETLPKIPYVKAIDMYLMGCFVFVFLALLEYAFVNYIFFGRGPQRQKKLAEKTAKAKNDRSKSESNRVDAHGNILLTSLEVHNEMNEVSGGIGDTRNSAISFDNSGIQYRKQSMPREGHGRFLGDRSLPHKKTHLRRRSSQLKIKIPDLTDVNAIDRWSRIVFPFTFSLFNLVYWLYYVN
T2 sequence (P18507 40-467 limits assumed): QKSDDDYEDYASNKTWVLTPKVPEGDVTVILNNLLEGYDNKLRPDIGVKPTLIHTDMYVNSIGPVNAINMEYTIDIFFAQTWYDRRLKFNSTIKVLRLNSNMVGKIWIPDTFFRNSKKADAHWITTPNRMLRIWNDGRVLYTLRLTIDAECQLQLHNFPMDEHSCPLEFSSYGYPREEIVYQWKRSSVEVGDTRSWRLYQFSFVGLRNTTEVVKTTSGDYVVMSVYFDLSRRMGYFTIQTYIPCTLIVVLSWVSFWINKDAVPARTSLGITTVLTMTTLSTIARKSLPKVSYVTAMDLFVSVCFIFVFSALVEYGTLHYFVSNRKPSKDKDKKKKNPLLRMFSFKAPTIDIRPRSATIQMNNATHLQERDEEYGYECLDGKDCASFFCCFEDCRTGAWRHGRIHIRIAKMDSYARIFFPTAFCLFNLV
Description: Extracting beta band oscillations. […] Here this approach is applied to isolate beta-band oscillations from EEG signals (FIGS. 4,5). This approach entails the estimation of the “background activity” in the frequency range of interest, which is non-oscillatory and/or composed of many oscillatory signals at different neighboring frequencies and therefore appears non-oscillatory. In a first implementation referred to as “locally referenced power”, the “background activity” for a given frequency range of interest (here beta frequency range defined as 16-32 Hz) is estimated by interpolation from power at lower and higher neighboring frequencies, referred to herein as “reference supports” (in this example, reference support points of 12 and 40 Hz are used). Note that in cases where a peak in the alpha band is expected (e.g. a peak around 10 Hz), reference support points that are closer to the beta frequency range on the lower end of the scale may be used, such as e.g. any point between 12 and 16 Hz). The estimated “background activity” is then “removed” (i.e. excluded, such as subtracted) from the power in the frequency range of interest or a power spectral density value at a specific frequency within this frequency range (e.g. the peak frequency, or a predetermined frequency, such as e.g. a frequency identified as the group level peak in a population, e.g. 23 Hz in the present case). The resulting estimate should thereby provide a more specific measure of the oscillatory physiological process under investigation (here GABAA-related beta-band oscillations).
More specifically, the “background power spectral density” at a given frequency may be derived by linear interpolation of logarithmically transformed power and frequencies (see FIG. 4B). The power signal in spectral analysis is typically log transformed by default. […] The “background power” is then estimated as the integral of this “background power spectral density” over the beta frequency range (here defined as 16-32 Hz). In other words, the “background signal” is the area under a straight line extending between the value of the spectrum at each of the support points (“background signal line”), between 16 and 32 Hz. The “locally referenced beta power” is then defined as the logarithm of the ratio between the beta power defined as the integral over the beta frequency range and the estimate of the “background power” (which is equivalent to the logarithm of the beta power defined as the integral over the beta frequency range, minus the logarithm of the estimate of the “background power”, or the area under the power curve in log scale, in the beta frequency range, minus the area under the background signal line in log scale, in the beta frequency range). Note that this metric will be negative when there is a deficit in the signal in this range compared to background.
In a third implementation, an approach using a global fit of the power spectrum composed of a superposition of oscillatory signals and a 1/f^α component was used to estimate the background signal. The 1/f^α component of the fit (estimated as described in Donoghue et al., 2020, see FIG. 4C—note that only step (a) of the method described in Donoghue et al. is used herein, where an aperiodic component is estimated, see FIG. 2a of Donoghue et al.) was used as the estimate of the background power spectral density. Analogously to the above, in a first embodiment of this third implementation, the extracted “1 over f referenced beta power” was used to estimate the background signal, and in a second embodiment the extracted “1 over f referenced beta peak power” was used to estimate the background signal. […]

[4] = biological target: T2, GABA-A α5; design: host or cells: brain of healthy volunteers (and individuals with Down syndrome), in vivo EEG; conditions: cited from earlier work
[5] = selective doses 25-100 mg, parallel group, no pre-treatment baseline

Structure (SMILES): C#Cc1ccc2c(c1)C(c1ccccc1F)=N[C@H](C)c1c(C(=O)NC)ncn1-2 [MP-III-022]
- Impairments in social, repetitive and restrictive behavioural domains [1]: prevented impairments in many parameters

Structure (SMILES): CCc1c(C(=O)OC)ncc2[nH]c3cc(OC)c(OC)cc3c12 [DMCM]
- EEG beta-band power, non-selective GABA-A NAMs [2]: decrease beta-band power

Structure (SMILES): CN1Cc2c(C(=O)OC(C)(C)C)ncn2-c2ccsc2C1=O [Ro 19-4603]
- EEG beta-band power, non-selective GABA-A NAMs [2]: decrease beta-band power

Structure (SMILES): Cc1ccc(-c2noc(C)c2COc2ccc(C(=O)NC3CCOCC3)nn2)cn1 [alogabat]
- Dose range that exhibits the full PD response (within GABA-A a5 receptor selective dose range) ([3]; EEG beta-band power change from baseline across dose levels): 25 to 100 mg
- Effect size (ES) placebo vs treated group, locally referenced beta power ([3]; both variants (FIG. 4B interpolation, FIG. 4C 1/f fit), selective doses 25-100 mg, parallel group, no pre-treatment baseline, p<0.007): ~0.7
- Frequency specificity of the pharmacodynamic EEG effect ([3]; change in power spectrum, 25-100 mg vs placebo, relative to pre-treatment baseline): specific to the beta-band
- Change from baseline in EEG beta-band power (12-30 Hz) ([3]; relative to pre-dose baseline, compared to placebo, about 180 min after dosing): increases EEG beta-band power; also recorded: strong and consistent increase in beta-band power
- Effect size (ES) placebo vs treated group, relative beta power [3, 5]: 0.62
- Separation of placebo and treated group by absolute beta power [3, 5]: not able to discriminate between the alogabat and the placebo group; also recorded: does not allow separating groups

Structure (SMILES): Cc1onc(-c2ccc(F)cc2)c1COc1ccc(C(=O)N2CCS(=O)(=O)CC2)cn1 [basmisanil]
- EEG beta-band power ([4]; healthy volunteers and individuals with down-syndrome, Goeldner et al., 2022, Hipp et al., 2021): decrease in beta-band power
- EEG beta-band power ([4]; healthy volunteers, Hipp et al., 2021, FIG. 6): decrease EEG beta-band power
